{"source": "patent US10760052B2", "about": "“Method of inhibiting tau phosphorylation” (priority 2012, dated 2020)", "key": {"[1]": {"test_system": "tau protein phosphorylated at S202, T231 and T181", "test": "Aβ42-induced tau phosphorylation in rat frontal cortical synaptosomes", "type": "cell-based", "protocol": "FIG. 4 in four panels as FIGS. 4A-4D, illustrates that FLNA-binding compounds reduce tau phosphorylation at all three phosphorylation sites. […] The three phosphoepitopes of tau were detected in immunoprecipitates using specific antibodies. […] Immunoprecipitates were determined by Western blotting (FIGS. 4A-4C) and quantified by densitometry (FIG. 4D).\nFIG. 42, also in two panels, FIGS. 42A and 42B, illustrates that FLNA-binding compounds reduce tau phosphorylation at all three phosphorylation sites using the compounds and concentrations of FIG. 41 using immunoprecipitation and Western blotting. […] The three phosphoepitopes of tau were detected in immunoprecipitates using specific antibodies.\nFIG. 44, also in two panels, FIG. 44A and FIG. 44B, illustrates that FLNA-binding compounds reduce tau phosphorylation at all three phosphorylation sites using the compounds and concentrations of FIG. 43 using immunoprecipitation and Western blotting. […] The three phosphoepitopes of tau were detected in immunoprecipitates using specific antibodies. Aβ42 strongly promotes tau phosphorylation at all three sites.\nFIG. 46, also in two panels, FIG. 46A and FIG. 46B, illustrates that FLNA-binding compounds reduce tau phosphorylation at all three phosphorylation sites using the compounds and concentrations of FIG. 45 using immunoprecipitation and Western blotting. […] The three phosphoepitopes of tau were detected in immunoprecipitates using specific antibodies. Aβ42 strongly promotes tau phosphorylation at all three sites.\nThe three primary phosphorylation sites on tau protein were examined for their phosphorylation levels compared to total tau protein content. Tau, phosphorylated at these three sites, is a constituent of NFTs. Consistent with effects on FLNA-α7nAChR association, and ERK2 activation, all of the FLNA-binding compounds assayed, with 10 minute pre-incubation, decreased Aβ42-induced phosphorylation of tau at all three sites (FIG. 4)."}, "insulin receptor (IR)": {"test_system": "insulin receptor (IR)", "test": "Postmortem human frontal cortex: IR activation and signaling", "type": "cell-based", "conditions": "AD and Aβ42-treated control brain slices; 1 nM", "quoted_text": "IR activation and signaling were initiated by incubation of approximately 10 mg of in vitro treated brain slices with either KR (basal) or KR containing 1 nM insulin at 37° C. for 30 minutes. […] Ligand stimulation was terminated by the addition of 1 ml of ice-cold Ca^2+-free K-R containing 0.5 mM EGTA and 0.1 mM EDTA. Brain slices were harvested by a brief centrifugation and were homogenized in 0.25 ml of ice-cold immunoprecipitation buffer. The homogenates were centrifuged at 1000×g for 5 minutes (4° C.) and the supernatant (post-mitochondrial fraction) is sonicated for 10 seconds on ice. […] The resultant lysates are then cleared by centrifugation at 50,000×g for 5 minutes and diluted with 0.75 ml of immunoprecipitation buffer. Protein concentrations are measured by Bradford method (Bio-Rad).\nThe blots were stripped and re-probed with anti-IRβ to assess the loading as appropriate."}, "NMDAR": {"test_system": "NMDAR", "type": "cell-based, rat", "conditions": "slice cultures, 0.1 μM Aβ42"}, "α7nAChR": {"test_system": "α7nAChR", "conditions": "mouse, in vivo"}, "α7nAChR-FLNA complex": {"target": "T1, α7nAChR-FLNA complex (Rattus norvegicus, UniProt A0A8I5ZV49)", "T1 construct": "from tissue; host or cells: rat frontal cortex synaptosomes", "T1 sequence (A0A8I5ZV49 entry or part of it, one chain of several)": "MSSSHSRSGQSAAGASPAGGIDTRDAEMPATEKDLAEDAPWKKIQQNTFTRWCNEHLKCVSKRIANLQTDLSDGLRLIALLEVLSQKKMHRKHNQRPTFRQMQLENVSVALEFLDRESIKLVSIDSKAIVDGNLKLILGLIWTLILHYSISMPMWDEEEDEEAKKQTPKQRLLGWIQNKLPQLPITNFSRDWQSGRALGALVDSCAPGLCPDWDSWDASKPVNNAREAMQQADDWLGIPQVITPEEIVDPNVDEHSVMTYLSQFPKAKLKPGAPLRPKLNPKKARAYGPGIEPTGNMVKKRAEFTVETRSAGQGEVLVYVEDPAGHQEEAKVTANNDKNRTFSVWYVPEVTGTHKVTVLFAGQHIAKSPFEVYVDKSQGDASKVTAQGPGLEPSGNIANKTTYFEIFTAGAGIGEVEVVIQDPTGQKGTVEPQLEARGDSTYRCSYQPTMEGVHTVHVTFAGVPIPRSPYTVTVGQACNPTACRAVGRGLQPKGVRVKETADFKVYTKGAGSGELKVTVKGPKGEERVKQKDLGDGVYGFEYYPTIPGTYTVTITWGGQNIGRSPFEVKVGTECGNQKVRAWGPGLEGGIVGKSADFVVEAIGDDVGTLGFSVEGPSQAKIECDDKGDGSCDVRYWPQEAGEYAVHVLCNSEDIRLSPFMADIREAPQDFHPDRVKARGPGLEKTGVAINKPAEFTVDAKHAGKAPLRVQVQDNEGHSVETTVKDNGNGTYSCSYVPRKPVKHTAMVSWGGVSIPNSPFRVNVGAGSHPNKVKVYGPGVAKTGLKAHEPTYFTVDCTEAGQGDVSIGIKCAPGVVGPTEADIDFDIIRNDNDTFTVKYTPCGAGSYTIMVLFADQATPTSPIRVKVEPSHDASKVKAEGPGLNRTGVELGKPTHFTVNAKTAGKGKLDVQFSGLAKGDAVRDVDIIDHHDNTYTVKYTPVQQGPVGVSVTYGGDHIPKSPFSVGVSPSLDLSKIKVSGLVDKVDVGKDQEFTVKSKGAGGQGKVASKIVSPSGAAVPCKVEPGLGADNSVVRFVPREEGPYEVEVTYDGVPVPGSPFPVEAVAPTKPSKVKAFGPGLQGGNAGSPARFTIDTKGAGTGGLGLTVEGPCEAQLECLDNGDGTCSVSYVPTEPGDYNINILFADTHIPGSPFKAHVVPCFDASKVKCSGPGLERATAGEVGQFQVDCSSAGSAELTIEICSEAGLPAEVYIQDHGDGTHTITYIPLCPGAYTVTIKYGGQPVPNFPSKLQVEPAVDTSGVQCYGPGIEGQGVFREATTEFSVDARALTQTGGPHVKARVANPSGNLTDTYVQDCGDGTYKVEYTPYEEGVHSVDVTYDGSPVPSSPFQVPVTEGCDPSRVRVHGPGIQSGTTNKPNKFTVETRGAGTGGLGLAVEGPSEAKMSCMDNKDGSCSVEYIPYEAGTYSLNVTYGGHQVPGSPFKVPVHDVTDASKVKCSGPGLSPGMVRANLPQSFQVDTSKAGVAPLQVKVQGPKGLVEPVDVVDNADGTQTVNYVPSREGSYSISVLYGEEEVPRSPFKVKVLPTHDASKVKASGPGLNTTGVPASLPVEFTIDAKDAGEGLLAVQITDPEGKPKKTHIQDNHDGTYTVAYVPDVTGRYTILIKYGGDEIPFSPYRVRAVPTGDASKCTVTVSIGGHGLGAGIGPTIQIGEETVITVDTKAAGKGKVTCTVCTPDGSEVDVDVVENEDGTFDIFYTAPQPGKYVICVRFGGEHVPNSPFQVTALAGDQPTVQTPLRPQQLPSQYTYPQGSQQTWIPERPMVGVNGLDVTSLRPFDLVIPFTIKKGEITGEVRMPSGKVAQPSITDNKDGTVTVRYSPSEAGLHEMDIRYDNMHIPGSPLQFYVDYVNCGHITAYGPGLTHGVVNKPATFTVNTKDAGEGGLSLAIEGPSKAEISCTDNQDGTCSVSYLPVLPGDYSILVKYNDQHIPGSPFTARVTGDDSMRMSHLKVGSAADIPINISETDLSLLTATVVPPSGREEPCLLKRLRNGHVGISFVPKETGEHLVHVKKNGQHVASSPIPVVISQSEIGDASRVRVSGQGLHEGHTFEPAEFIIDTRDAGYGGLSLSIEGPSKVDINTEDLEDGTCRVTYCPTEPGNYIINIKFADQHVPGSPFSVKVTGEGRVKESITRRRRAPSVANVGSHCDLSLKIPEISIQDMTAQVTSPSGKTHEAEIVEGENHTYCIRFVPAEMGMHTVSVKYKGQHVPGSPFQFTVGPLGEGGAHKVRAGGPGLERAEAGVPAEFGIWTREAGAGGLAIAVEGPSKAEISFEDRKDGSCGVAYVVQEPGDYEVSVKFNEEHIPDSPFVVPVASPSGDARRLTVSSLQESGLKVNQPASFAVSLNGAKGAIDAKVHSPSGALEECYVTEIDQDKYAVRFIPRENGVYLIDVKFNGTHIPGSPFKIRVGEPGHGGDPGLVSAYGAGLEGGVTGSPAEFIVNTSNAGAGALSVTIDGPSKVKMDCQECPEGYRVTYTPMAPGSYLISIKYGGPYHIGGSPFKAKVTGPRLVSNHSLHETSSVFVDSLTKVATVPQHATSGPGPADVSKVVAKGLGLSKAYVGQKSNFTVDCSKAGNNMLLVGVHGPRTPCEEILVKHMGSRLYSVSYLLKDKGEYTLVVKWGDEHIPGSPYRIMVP", "test": "Aβ42-induced α7nAChR-FLNA association in rat frontal cortical synaptosomes (co-immunoprecipitation/Western blot)", "type": "cell-based", "from_the_text": "The α7nAChR-FLNA complexes in the solubilized synaptosomes were immunoprecipitated with immobilized anti-FLNA and the α7nAChR and FLNA levels in the anti-FLNA immunoprecipitates determined by Western blotting (FIG. 2A) and quantified by densitometry (FIG. 2B). n=3. […] The letter designation “M” that accompanies many of the “C-series” compounds is omitted from FIG. 2, the remaining figures and most discussions of the figures and compounds hereinafter for ease in expression. Structural formulas of the compounds used in this and the other figures are provided hereinafter. […]"}, "FLNA": {"target": "T2, FLNA (Homo sapiens, UniProt P21333)", "T2 construct": "validate the use of that 5-mer peptide as a surrogate for the complete molecule in the assays carried out herein; host or cells: A7 cells", "test": "[3H]NLX competition binding to FLNA in SK-N-MC cell membranes", "conditions": "read-out: IC50-L, inhibition of [3H]NLX binding"}, "ERK2": {"test_system": "ERK2", "test": "Aβ42-induced ERK2 activation (pERK2) in rat frontal cortical synaptosomes", "type": "cell-based", "conditions": "simultaneous treatment", "protocol": "FIG. 3 in two panels as FIG. 3A and FIG. 3B, illustrates that FLNA-binding compounds reduce Aβ-induced α7nAChR-mediated ERK2 signaling. In the same treated synaptosomes used in FIG. 2, levels of phosphorylated (activated) ERK2 were measured in immunoprecipitates of ERK2. […] Immunoprecipitates were determined by Western blotting (FIG. 3A) and quantified for four compounds by densitometry (FIG. 3B). n=3.\nPhosphorylation of ERK2 indicates its activation, which leads to tau phosphorylation."}, "[2]": {"test_system": "voltage-gated calcium channel-mediated Ca2+ influx", "type": "cell-based, human", "conditions": "postmortem AD tissue; 1 nM"}, "FLNA-TLR4 association": {"test_system": "FLNA-TLR4 association", "test": "FLNA association with TLR4 in organotypic frontocortical slice cultures", "type": "cell-based, rat", "conditions": "100 nM Aβ42, 16 hours, compound added simultaneously", "protocol": "Tissue was harvested and solubilized, and a specific antibody against FLNA was used to immunoprecipitate FLNA and associated proteins. The FLNA immunoprecipitate was size-fractionated using SDS-PAGE, transferred and probed with specific antibodies directed against each of the following receptors: α7nAChR, TLR4, IR and MOR.\nRat brain slice organotypic culture methods were modified from those published previously. [Adamchik et al., Brain Res Brain Res Protoc 5:153-158 (2000).] FCX slices ([…]) were transferred to sterile, porous Millicell-CM inserts (0.4 μm). Each culture insert unit contained two brain slices and was placed into individual wells of a 12-well culture tray in 2 ml medium: 50% MEM with Earl's salts, 2 mM L-glutamine, 25% Earl's balanced salt solution, 6.5 g/l D-glucose, 20% fetal bovine serum (FBS), 5% horse serum, 25 mM HEPES buffer, pH 7.2, and […]. […]\nThe level of FLNA-associated α7nAChRs was determined using a co-immunoprecipitation/Western blotting method as described previously. […] The levels of FLNA-associated α7nAChR, TLR4, IR and MOR were assessed by Western blotting using specific antibodies directed against the respective proteins and the blot stripped and re-probed for FLNA for immunoprecipitation/loading control."}}, "note": "pIC50: −log10 of the molar value."}
{"smiles": "CN1CCC2(CC1)NCC(=O)N2Cc1ccccc1", "note": "[Compound C0105]", "values": [{"measurement": "Aβ42-induced tau phosphorylation at S202, T231 and T181", "setting": "[1]; 1 or 10 nM compound, simultaneously or 10-minute pretreatment, Aβ42 0.1 μM", "result": "reduced this phosphorylation at both concentrations"}, {"measurement": "Aβ42-induced phosphorylation of tau", "setting": "[1]; simultaneous administration", "result": "reduced tau phosphorylation with simultaneous administration"}, {"measurement": "IR signaling assemblies", "setting": "insulin receptor (IR)", "result": "Normalization of receptor function"}, {"measurement": "Aβ42-induced impairment in NMDAR function (calcium influx after NMDA and glycine)", "setting": "NMDAR", "result": "completely prevented by 1 and 10 nM"}, {"measurement": "Aβ42-induced reduction in calcium influx after PNU282987", "setting": "α7nAChR", "result": "normalized"}, {"measurement": "α7nAChR-FLNA association (ratio α7nAChR/FLNA)", "setting": "α7nAChR-FLNA complex; 1 or 10 nM compound, simultaneously or 10 minutes prior to Aβ42 (0.1 μM)", "result": "statistically different from Aβ42 alone"}, {"measurement": "α7nAChR-FLNA association", "setting": "α7nAChR-FLNA complex; simultaneous administration with Aβ42", "result": "markedly reduced this coupling"}, {"measurement": "pIC50", "setting": "FLNA", "result": 9.95}, {"measurement": "ERK2 activation (pERK2)", "setting": "ERK2", "result": "greatly suppressed"}, {"measurement": "Deficit in depolarization-induced calcium influx", "setting": "[2]", "result": "attenuated the deficit"}, {"measurement": "Aβ42-induced increase in FLNA-TLR4 association", "setting": "FLNA-TLR4 association", "result": "reduced the increase in FLNA-TLR4 at 1 and 10 nM"}]}
